According to ChEMBL document CHEMBL1137932, “Synthesis of S-alkyl L-homocysteine analogues of glutathione and their kinetic studies with gamma-glutamyl transpeptidase” (Bioorg Med Chem Lett, 2004):

Tests used:
Assay type in all cases: tissue-based
[1] = target: T1, Glutathione hydrolase 1 proenzyme (Rattus norvegicus, UniProt P07314); test: Compound tested for the inhibition of Gamma-glutamyltranspeptidase in rat kidney at pH 8.0 at 37 degree C (Competitive inhibition)
[2] = target: T1, Glutathione hydrolase 1 proenzyme; test: Compound tested for the inhibition of Gamma-glutamyltranspeptidase in rat kidney at pH 8.0 at 37 degree C
[3] = target: T1, Glutathione hydrolase 1 proenzyme; test: Compound tested for the inhibition of Gamma-glutamyltranspeptidase in rat kidney at pH 8.0 at 37 degree C; N/0=No inhibition observed up to 20 mM

T1 sequence (P07314 1-379 limits assumed): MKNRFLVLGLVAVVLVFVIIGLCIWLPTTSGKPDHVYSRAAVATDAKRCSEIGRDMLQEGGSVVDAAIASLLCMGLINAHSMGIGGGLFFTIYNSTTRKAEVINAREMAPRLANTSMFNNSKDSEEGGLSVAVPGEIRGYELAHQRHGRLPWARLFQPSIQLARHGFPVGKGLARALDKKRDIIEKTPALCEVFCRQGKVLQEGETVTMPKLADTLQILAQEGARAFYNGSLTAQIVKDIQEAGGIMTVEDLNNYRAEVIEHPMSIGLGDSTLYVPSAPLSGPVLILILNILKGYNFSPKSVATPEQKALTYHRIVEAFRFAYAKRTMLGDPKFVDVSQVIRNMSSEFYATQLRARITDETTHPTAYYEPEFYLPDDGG
T1 sequence (P07314 380-568 limits assumed): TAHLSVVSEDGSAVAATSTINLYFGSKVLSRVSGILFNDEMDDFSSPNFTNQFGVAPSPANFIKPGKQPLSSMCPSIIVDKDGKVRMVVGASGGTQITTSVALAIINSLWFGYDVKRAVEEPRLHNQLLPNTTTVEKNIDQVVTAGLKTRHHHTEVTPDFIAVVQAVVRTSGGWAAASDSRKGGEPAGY

Row | SMILES | Ki [1] [mM] | further results
1 | C[S+]([O-])CC[C@H](N)C(=O)O (some centres not stated) [METHIONINE SULFOXIDE] | 5.9 | 
2 | N[C@@H](CC[S+]([O-])Cc1ccc(C(=O)NCC(=O)O)cc1)C(=O)O (some centres not stated) | 0.23 | 
3 | NC(CC[S+]([O-])CCC(=O)NCC(=O)O)C(=O)O (configuration not stated) | 0.053 | 
4 | N[C@@H](CCSCCC(=O)NCC(=O)O)C(=O)O | 0.52 | 
5 | N[C@@H](CCS(=O)(=O)CCC(=O)NCC(=O)O)C(=O)O |  | Ki [2]: 3.5 mM
6 | CS(=O)(=O)CC[C@H](N)C(=O)O [METHIONINE SULFONE] |  | Ki [3]: No inhibition to 20mM
7 | CSCC[C@H](N)C(=O)O [METHIONINE] | 26.9 | 
